In patent US20100041089A1, “IMPROVED METHOD FOR DETECTING CHEMICAL […]” (priority 2006, published 2010):

Test system: yeast genes (expressed mRNA)
Assay: DNA chip measurement of expressed mRNA of yeast genes after culture with a toxic chemical substance
Assay type: cell-based, Saccharomyces cerevisiae S288C
Description: Yeast (Saccharomyces cerevisiae S288C (a SUC2mal mel gap2 CUP1)) were cultured at 25° C. on YPD medium (yeast extract 1%, polypeptone 2%, glucose 2%). One of toxic chemical substances was added to the cell at logarithmic growth phase, and the cell was further cultured for two hours. Cell was cultured without any chemical substance in the same condition, and was used as a control. Concentrations of the chemical substances were defined to inhibit the growth of the yeast but not lead to death.
After the completion of cultivation, the culture was centrifuged to collect the cells. To the cells, sodium acetate buffer (50 mM sodium acetate, 10 mM EDTA, 1% SDS) was added, and the mixture was shaken at 65° C. for five minutes, followed by returning to room temperature, and obtaining the supernatant, which procedure was repeated two times. To the supernatant, ½ amount of a solution of phenol/chloroform (1:1) was added, and the mixture was centrifuged to give a supernatant, an equal amount of chloroform was added, and the mixture was centrifuged to give a supernatant. To the supernatant, an equal amount of isopropanol containing 0.3 M sodium acetate was added, and the mixture was allowed to stand at room temperature for 30 minutes, after which the mixture was centrifuged to give sediment of the whole RNAs. Seventy % ethanol was added to the sediment, and the mixture was again centrifuged to give sediment, which was then dried and dissolved in water. mRNA was isolated from the whole RNAs as followings. In view of the fact that a poly A chain is attached to the 3′ terminus of mRNA, a polynucleotide having a poly T structure which was immobilized on the surface of latex beads was used to trap the mRNA, and then the mRNA was washed and eluted with spine column (Oligotex-dT30<Super>mRNA Purification Kit, Takara). Reverse transcription of the mRNA was conducted with a reverse transcriptase (Super Script II Reverse Transcriptase; catalogue No. 18064-014, GibcoBRL) using fluorescence-labeled nucleotides to give cDNAs that were introduced with Cy3-dUTP or Cy5-dUTP during the reverse transcription.
The labeled cDNAs were dissolved in TE buffer (10 mM Tris-HCl/1 mM EDTA, pH 8.0), and the solution was dropped on the DNA chip containing the whole genes of yeast (DNA Chip Research Inc. Japan) so that the cDNAs were hybridized on the DNA chip at 65° C. for over 12 hours. The fluoresces intensity of the DNA chip was read with a scanner, and the ratio relative to the fluorescence intensity resulting from the absence of chemical substance was estimated as the following, which is shown in Tables 1 to 9.
In the Tables, “Intensity” indicated in the rightmost column is a value of the level of expressed mRNA of each gene in control cells as divided by the average level of the expressions of the whole genes. A gene of which mRNA level is lower in control, and is higher in cases of addition of chemical substance, is especially useful in the detection of toxic substances.
Here, when a ratio of an amount of mRNA expressed in the presence of the chemical substance to an amount of mRNA expressed in the absence of the chemical substance is two or more, then it is considered significant.

CCCCCCCCCCCCOS(=O)(=O)[O-].[Na+] [(18), Sodium lauryl sulfate]
The level of expressed mRNA in the presence of chemical substance/The level of expressed mRNA in the absence of chemical substance (yeast gene YNL092W, cultured two hours with substance): 1.6
The level of expressed mRNA in the presence of chemical substance/The level of expressed mRNA in the absence of chemical substance (yeast gene YNL115C, cultured two hours with substance): 2.6
The level of expressed mRNA in the presence of chemical substance/The level of expressed mRNA in the absence of chemical substance (yeast gene YNL156C, cultured two hours with substance): 1.9
The level of expressed mRNA in the presence of chemical substance/The level of expressed mRNA in the absence of chemical substance (yeast gene YNL190W, cultured two hours with substance): 0.8
The level of expressed mRNA in the presence of chemical substance/The level of expressed mRNA in the absence of chemical substance (yeast gene YNL208W, cultured two hours with substance): 1.0
The level of expressed mRNA in the presence of chemical substance/The level of expressed mRNA in the absence of chemical substance (yeast gene YNL211C, cultured two hours with substance): 6.8
The level of expressed mRNA in the presence of chemical substance/The level of expressed mRNA in the absence of chemical substance (yeast gene YNL234W, cultured two hours with substance): 1.0
The level of expressed mRNA in the presence of chemical substance/The level of expressed mRNA in the absence of chemical substance (yeast gene YNL281W, cultured two hours with substance): 0.9
The level of expressed mRNA in the presence of chemical substance/The level of expressed mRNA in the absence of chemical substance (yeast gene YNL300W, cultured two hours with substance): 0.8
The level of expressed mRNA in the presence of chemical substance/The level of expressed mRNA in the absence of chemical substance (yeast gene YNL305C, cultured two hours with substance): 1.6
The level of expressed mRNA in the presence of chemical substance/The level of expressed mRNA in the absence of chemical substance (yeast gene YNR064C, cultured two hours with substance): 1.9
The level of expressed mRNA in the presence of chemical substance/The level of expressed mRNA in the absence of chemical substance (yeast gene YNR068C, cultured two hours with substance): 1.0
The level of expressed mRNA in the presence of chemical substance/The level of expressed mRNA in the absence of chemical substance (yeast gene YOL032W, cultured two hours with substance): 1.8
The level of expressed mRNA in the presence of chemical substance/The level of expressed mRNA in the absence of chemical substance (yeast gene YOL036W, cultured two hours with substance): 0.9
The level of expressed mRNA in the presence of chemical substance/The level of expressed mRNA in the absence of chemical substance (yeast gene YOL047C, cultured two hours with substance): 1.0
The level of expressed mRNA in the presence of chemical substance/The level of expressed mRNA in the absence of chemical substance (yeast gene YOL071W, cultured two hours with substance): 2.0
The level of expressed mRNA in the presence of chemical substance/The level of expressed mRNA in the absence of chemical substance (yeast gene YOL073C, cultured two hours with the chemical substance): 1.2
The level of expressed mRNA in the presence of chemical substance/The level of expressed mRNA in the absence of chemical substance (yeast gene YOL082W, cultured two hours with substance): 2.5
The level of expressed mRNA in the presence of chemical substance/The level of expressed mRNA in the absence of chemical substance (yeast gene YOL083W, cultured two hours with substance): 3.2
The level of expressed mRNA in the presence of chemical substance/The level of expressed mRNA in the absence of chemical substance (yeast gene YOL117W, cultured two hours with substance): 1.4
The level of expressed mRNA in the presence of chemical substance/The level of expressed mRNA in the absence of chemical substance (yeast gene YOL131W, cultured two hours with substance): 0.9
The level of expressed mRNA in the presence of chemical substance/The level of expressed mRNA in the absence of chemical substance (yeast gene YOL150C, cultured two hours with substance): 2.2
The level of expressed mRNA in the presence of chemical substance/The level of expressed mRNA in the absence of chemical substance (yeast gene YOL162W, cultured two hours with substance): 0.9
The level of expressed mRNA in the presence of chemical substance/The level of expressed mRNA in the absence of chemical substance (yeast gene YOR019W, cultured two hours with substance): 2.8
The level of expressed mRNA in the presence of chemical substance/The level of expressed mRNA in the absence of chemical substance (yeast gene YOR161C, cultured two hours with the chemical substance): 1.2
The level of expressed mRNA in the presence of chemical substance/The level of expressed mRNA in the absence of chemical substance (yeast gene YOR173W, cultured two hours with substance): 3.8
The level of expressed mRNA in the presence of chemical substance/The level of expressed mRNA in the absence of chemical substance (yeast gene YOR197W, cultured two hours with substance): 1.5
The level of expressed mRNA in the presence of chemical substance/The level of expressed mRNA in the absence of chemical substance (yeast gene YOR248W, cultured two hours with substance): 0.8
The level of expressed mRNA in the presence of chemical substance/The level of expressed mRNA in the absence of chemical substance (yeast gene YOR289W, cultured two hours with substance): 3.9
The level of expressed mRNA in the presence of chemical substance/The level of expressed mRNA in the absence of chemical substance (yeast gene YPL052W, cultured two hours with substance): 1.5
The level of expressed mRNA in the presence of chemical substance/The level of expressed mRNA in the absence of chemical substance (yeast gene YPL087W, cultured two hours with substance): 2.7
The level of expressed mRNA in the presence of chemical substance/The level of expressed mRNA in the absence of chemical substance (yeast gene YPL196W, cultured two hours with substance): 2.3
The level of expressed mRNA in the presence of chemical substance/The level of expressed mRNA in the absence of chemical substance (yeast gene YPL206C, cultured two hours with substance): 1.9
The level of expressed mRNA in the presence of chemical substance/The level of expressed mRNA in the absence of chemical substance (yeast gene YPL222W, cultured two hours with substance): 0.9
The level of expressed mRNA in the presence of chemical substance/The level of expressed mRNA in the absence of chemical substance (yeast gene YPL272C, cultured two hours with the chemical substance): 1.2
The level of expressed mRNA in the presence of chemical substance/The level of expressed mRNA in the absence of chemical substance (yeast gene YPR023C, cultured two hours with substance): 1.1
The level of expressed mRNA in the presence of chemical substance/The level of expressed mRNA in the absence of chemical substance (yeast gene YPR079W, cultured two hours with substance): 1.5
The level of expressed mRNA in the presence of chemical substance/The level of expressed mRNA in the absence of chemical substance (yeast gene YPR127W, cultured two hours with substance): 1.2
The level of expressed mRNA in the presence of chemical substance/The level of expressed mRNA in the absence of chemical substance (yeast gene YPR151C, cultured two hours with substance): 1.4
